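Growth conditions: 96-well plates. Treatment: test compound, 48 hours, 5 concentrations. Analysis: linear interpolation between bracketing concentrations; unreached endpoints set to highest concentration. GI50 marks 50% less growth. TGI is the concentration that stops growth completely.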 Where a SMILES comes first, the peptide text is derived from it. [ ]: non-standard residue; d: D form. The star is where a group is joined. Bn2Val = CC(C)[C@@H](C(=O)*)N(Cc1ccccc1)Cc1ccccc1; NH(4-Cl-benzyl) = Clc1ccc(CN*)cc1; NMeV = CN[C@H](C(=O)O)C(C)C; dNMeA = CN[C@H](C)C(=O)O
Columns and labels:
Test in all cases: NCI-60 cell line screen, 48 h
UACC-257 melanoma = system: UACC-257 melanoma
A498 renal = system: A498 renal
NCI-H23 lung = system: NCI-H23 lung
COLO 205 colon = system: COLO 205 colon
HL-60(TB) leukemia = system: HL-60(TB) leukemia
SK-MEL-28 melanoma = system: SK-MEL-28 melanoma
MALME-3M melanoma = system: MALME-3M melanoma
HS 578T breast = system: HS 578T breast
M14 melanoma = system: M14 melanoma
BT-549 breast = system: BT-549 breast

Structure (SMILES)	TGI (UACC-257 melanoma)	TGI (A498 renal)	TGI (NCI-H23 lung)	TGI (COLO 205 colon)	TGI (HL-60(TB) leukemia)	TGI (SK-MEL-28 melanoma)	TGI (MALME-3M melanoma)	TGI (HS 578T breast)	TGI (M14 melanoma)	TGI (BT-549 breast)	GI50 (A498 renal)	GI50 (NCI-H23 lung)	GI50 (HL-60(TB) leukemia)
O=C(O)c1ccccc1N=Cc1ccc(N(CCCl)CCCl)cc1	> 100 µM	> 57.7 µM	> 100 µM	> 100 µM	> 100 µM	> 100 µM	> 100 µM						
CC(C)C(C/C=C1\CC(CO)(COC(=O)C2CCCCC2)OC1=O)C(C)C (stereo unspecified)	84.1 µM	> 100 µM	40.2 µM	23.6 µM		33.8 µM	35.5 µM	31.8 µM	48.4 µM	47.2 µM			
CN(C)/N=N/c1nc2c(c(=O)n(C)c(=O)n2C)n1CC(O)CO (stereo unspecified)	> 100 µM		> 100 µM	> 100 µM	> 100 µM	> 100 µM	> 100 µM	> 100 µM	> 100 µM	> 100 µM			
Cc1cc(C)c2c(c1)C(=O)/C(=C/c1ccccc1C(=O)O)C2	> 100 µM	> 100 µM			> 100 µM	> 100 µM	> 100 µM	> 100 µM	> 100 µM	> 100 µM			
CCc1cc2c(c3c1CCCC3=O)CC1(Cc3ccc(C(=O)OC)cc3C1)C2 (stereo unspecified)	> 100 µM	> 100 µM	> 100 µM	> 100 µM	55.4 µM	> 100 µM	> 100 µM	> 100 µM	> 100 µM				
CC1(C)CC(=O)C2(CC(CSc3ccccc3)C(CS(=O)(=O)c3ccccc3)C2)C(=O)C1 (stereo unspecified)	> 100 µM	> 100 µM	> 100 µM	> 100 µM		> 100 µM		> 100 µM	> 100 µM	> 100 µM			
CC(Oc1ccccc1Cl)C(=O)NN1C(=O)CSC1c1ccccc1 (stereo unspecified)	> 100 µM	> 100 µM	> 100 µM	> 100 µM	83.7 µM	> 100 µM		> 100 µM	> 100 µM	> 100 µM			
Cc1ccccc1-c1nc2c(C(=O)NCCN(C)C)cccc2[nH]1	> 100 µM	> 100 µM	> 100 µM	51.9 µM	> 74.6 µM	> 100 µM	> 62.2 µM						
Cc1cc(=O)[nH]c(NN2C(Cl)C(=O)C2c2ccc([N+](=O)[O-])cc2)n1 (stereo unspecified)	37.6 µM		26.1 µM	35.9 µM	24.9 µM	27.1 µM			23 µM				
Cc1cc2c([nH]c3ccccc32)c(O)c1-c1c(C)cc2c([nH]c3ccccc32)c1O	30.9 µM	29.4 µM	26.8 µM		55 µM	55 µM		32.7 µM	29.8 µM	33.6 µM	15.9 µM	12.4 µM	32.9 µM
Cn1c(-c2ccc(/C=N/NC(=S)N/N=C/c3ccc(-c4c[n+]5ccsc5n4C)cc3)cc2)c[n+]2ccsc12	> 100 µM			> 100 µM	> 100 µM	> 100 µM		> 100 µM	> 100 µM				
c1ccc(CN2CCC(Nc3ccccc3)(c3nnnn3Cc3ccccc3)CC2)cc1	34.5 µM	63.8 µM	> 100 µM	28.9 µM	25.9 µM	36.5 µM	34.9 µM	> 100 µM	38.5 µM				
COc1cccc(N[C@@H]2c3cc4c(cc3C(c3cc(OC)c(O)c(OC)c3)[C@H]3C(=O)OCC32)OCO4)c1 (stereo partly specified)	34.3 µM	2.1 µM	9.96 µM	7.39 µM	0.487 µM	> 61.2 µM	20.7 µM						
Nc1nc(Cl)cc(NC23CC4CC(CC(C4)C2)C3)n1	> 100 µM	> 100 µM	> 100 µM	> 100 µM		> 100 µM	> 100 µM		> 100 µM	> 100 µM			
O=c1oc(C(C(F)(F)F)C(F)(F)F)nc2ccccc12	> 100 µM	> 100 µM	> 100 µM	> 100 µM	> 100 µM	> 100 µM	> 100 µM		> 100 µM				
NCc1cccc(O)c1O	> 100 µM	> 100 µM		> 100 µM	> 100 µM	> 100 µM	> 100 µM		> 100 µM				
Cc1ccccc1N=C(N)Nc1ccccc1C	> 100 µM	> 100 µM	> 100 µM	> 100 µM	> 100 µM	> 100 µM	> 100 µM	> 100 µM	> 100 µM				
Cc1ccc(S(=O)(=O)Nc2nnc(S(N)(=O)=O)s2)cc1	> 100 µM	> 100 µM	> 100 µM	> 100 µM		> 100 µM	> 100 µM	> 100 µM	> 100 µM	> 100 µM			
CC(C)[C@H](NC(=O)[C@H](C(C)C)N(Cc1ccccc1)Cc1ccccc1)C(=O)N(C)[C@H](C(=O)N1CCC[C@H]1C(=O)N(C)[C@H](C)C(=O)NCc1ccc(Cl)cc1)C(C)C (Bn2Val-V[NMeV]P[dNMeA]-{NH(4-Cl-benzyl)})	> 100 µM		28.6 µM		3.97 µM	36.3 µM	> 29.7 µM	4.04 µM	30.1 µM	13.5 µM			
Nc1ccc(S(=O)(=O)Nc2nc3ccccc3nc2N2CCCCCC2)cc1	> 100 µM		47.7 µM	33.4 µM	52 µM	39.4 µM	85.9 µM	> 100 µM	> 100 µM	28.2 µM			
O=c1c(-c2ccccc2)c(SCCO)n(-c2ccccc2)c(=S)n1-c1ccccc1	> 100 µM		> 100 µM	> 100 µM	> 100 µM	> 100 µM	> 100 µM	> 100 µM	> 100 µM	> 100 µM			
CC(=O)Nc1ccc(OC/C(N)=N/NC(=O)c2ccncc2)cc1	> 100 µM	> 100 µM	> 100 µM	> 100 µM	> 100 µM	> 100 µM		> 100 µM	> 100 µM	> 100 µM			
c1ccc(/C(=N/Nc2ccncn2)c2ccccn2)cc1	> 100 µM		46.5 µM			> 100 µM		29.9 µM	30.5 µM	> 100 µM			
CCCCCCCCCCCCCCCCCCNc1nc(=O)n(C2CC(O)C(COP(=O)(O)O)O2)cc1F (stereo unspecified)	> 100 µM	> 100 µM	> 100 µM	> 100 µM		> 100 µM	> 100 µM	> 100 µM	> 100 µM	> 100 µM			
